Experimental data as given in ChEMBL document CHEMBL1124014, “Synthesis of (aryloxy)alkylamines. 2. Novel imidazo-fused heterocycles with calcium channel blocking and local anesthetic activity” (J Med Chem, 1988).
The source made the active and inactive calls. The calls are words filed in the database; no cut-off is given here.

Assays:
Mus musculus [1] = assay: Concentration causing local anesthetic activity in mice; assay type: functional, organism-based
Canis familiaris = organism: Canis familiaris; assay: Percent inhibition of calcium-dependent potassium-polarized smooth muscle contraction in canine trachea; assay type: functional, Canis lupus familiaris, Muscle tissue
Mus musculus [2] = assay: Concentration causing local anesthetic activity in mice; inactive; assay type: functional, organism-based
[3] = molecular target: T1, Voltage-dependent L-type calcium channel subunit alpha-1C (Oryctolagus cuniculus, UniProt P15381); assay: Inhibition of [3H]nitrendipine binding to calcium channels in Rabbit cardiac muscle.; assay type: tissue-based, Muscle tissue
T1 sequence (P15381 whole entry): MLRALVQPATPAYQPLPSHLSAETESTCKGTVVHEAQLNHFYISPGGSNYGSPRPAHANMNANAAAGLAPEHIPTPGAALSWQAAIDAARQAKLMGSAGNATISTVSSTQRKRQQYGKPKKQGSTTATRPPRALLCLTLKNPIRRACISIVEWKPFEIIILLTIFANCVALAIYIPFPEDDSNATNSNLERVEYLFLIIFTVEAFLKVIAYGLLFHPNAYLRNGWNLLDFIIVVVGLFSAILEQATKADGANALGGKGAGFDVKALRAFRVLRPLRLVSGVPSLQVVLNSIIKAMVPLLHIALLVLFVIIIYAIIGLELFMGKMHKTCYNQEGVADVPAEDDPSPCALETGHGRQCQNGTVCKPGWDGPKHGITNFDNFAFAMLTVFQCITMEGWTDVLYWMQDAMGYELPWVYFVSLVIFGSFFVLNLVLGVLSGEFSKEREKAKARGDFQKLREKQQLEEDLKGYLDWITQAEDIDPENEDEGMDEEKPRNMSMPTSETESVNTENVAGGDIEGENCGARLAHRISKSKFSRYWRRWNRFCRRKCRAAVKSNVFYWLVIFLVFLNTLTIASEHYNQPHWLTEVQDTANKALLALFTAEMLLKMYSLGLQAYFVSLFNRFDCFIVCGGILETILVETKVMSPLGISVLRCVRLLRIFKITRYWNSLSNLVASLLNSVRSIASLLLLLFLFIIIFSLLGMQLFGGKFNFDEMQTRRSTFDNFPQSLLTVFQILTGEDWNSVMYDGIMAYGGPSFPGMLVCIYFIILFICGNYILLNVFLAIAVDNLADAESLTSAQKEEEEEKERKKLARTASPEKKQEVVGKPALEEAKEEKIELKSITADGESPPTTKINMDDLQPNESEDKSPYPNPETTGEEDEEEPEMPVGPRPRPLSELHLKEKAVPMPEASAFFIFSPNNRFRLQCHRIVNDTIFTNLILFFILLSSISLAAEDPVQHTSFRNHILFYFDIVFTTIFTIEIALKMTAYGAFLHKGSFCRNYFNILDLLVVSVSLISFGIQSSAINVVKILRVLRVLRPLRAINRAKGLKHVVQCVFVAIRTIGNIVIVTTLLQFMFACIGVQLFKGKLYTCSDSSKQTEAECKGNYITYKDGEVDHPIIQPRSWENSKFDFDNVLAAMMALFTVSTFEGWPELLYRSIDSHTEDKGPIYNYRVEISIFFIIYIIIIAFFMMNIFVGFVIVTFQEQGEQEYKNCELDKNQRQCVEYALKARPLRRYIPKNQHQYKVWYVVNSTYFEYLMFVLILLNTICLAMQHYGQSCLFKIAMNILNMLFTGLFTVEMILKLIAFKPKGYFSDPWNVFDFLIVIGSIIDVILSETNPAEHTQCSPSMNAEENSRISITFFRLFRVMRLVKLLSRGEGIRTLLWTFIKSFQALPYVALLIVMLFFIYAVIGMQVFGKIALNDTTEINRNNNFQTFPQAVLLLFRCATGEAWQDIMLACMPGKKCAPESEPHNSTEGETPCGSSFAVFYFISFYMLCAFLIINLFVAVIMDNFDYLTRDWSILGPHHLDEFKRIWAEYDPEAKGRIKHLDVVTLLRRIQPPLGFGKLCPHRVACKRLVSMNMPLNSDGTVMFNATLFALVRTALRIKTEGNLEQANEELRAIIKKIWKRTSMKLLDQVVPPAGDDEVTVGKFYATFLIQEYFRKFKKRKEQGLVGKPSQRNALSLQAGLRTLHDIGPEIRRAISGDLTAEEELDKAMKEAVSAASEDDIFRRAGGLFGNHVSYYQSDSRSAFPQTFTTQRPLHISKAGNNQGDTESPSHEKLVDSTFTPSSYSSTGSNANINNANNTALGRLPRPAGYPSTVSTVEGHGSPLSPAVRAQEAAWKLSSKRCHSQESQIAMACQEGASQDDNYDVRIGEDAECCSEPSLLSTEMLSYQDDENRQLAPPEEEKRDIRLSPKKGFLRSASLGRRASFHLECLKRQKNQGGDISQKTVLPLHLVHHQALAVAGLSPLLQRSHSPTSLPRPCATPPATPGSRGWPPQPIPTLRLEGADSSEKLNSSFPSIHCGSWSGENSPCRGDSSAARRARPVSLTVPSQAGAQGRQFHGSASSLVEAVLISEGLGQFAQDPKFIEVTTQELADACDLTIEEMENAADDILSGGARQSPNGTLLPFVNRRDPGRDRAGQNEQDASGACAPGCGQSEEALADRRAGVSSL

[4] = Inhibition of [3H]nitrendipine binding to calcium channels of rabbit cardiac muscle at 68 uM; assay type: functional; details: Oryctolagus cuniculus, Muscle tissue
[5] = molecular target: T1, Voltage-dependent L-type calcium channel subunit alpha-1C; assay: Inhibition of [3H]nitrendipine binding to calcium channels of rabbit cardiac muscle at 10 uM; assay type: functional, tissue-based, Muscle tissue; details: probe [3H]nitrendipine

SMILES: CCCCCN(CCCCC)CCCOc1ccc(-c2cn3cccc(C)c3n2)cc1
- Concentration (Mus musculus [1]): 0.1%

SMILES: CCCCN(CCCC)CCCOc1ccc(C(=O)c2cnc3ncccn23)cc1.Cl.Cl
- Inhibition (Canis familiaris): 44%
- Concentration (Mus musculus [2]): inactive

SMILES: CCN(CC)CC(=O)Nc1c(C)cccc1C
- Concentration (Mus musculus [1]): 1%

SMILES: COc1ccc(CCN(C)CCCC(C#N)(c2ccc(OC)c(OC)c2)C(C)C)cc1OC (stereo not drawn)
- Inhibition (Canis familiaris): 93%
- Concentration (Mus musculus [1]): 1%

SMILES: CCCCN(CCCC)CCCOc1ccc(C(=O)c2cn3cc(Br)ccc3n2)cc1.Cl.Cl
- Inhibition (Canis familiaris): 50%
- Concentration (Mus musculus [1]): 1%

SMILES: CCCCN(CCCC)CCCOc1ccc(-c2cn3nc(C)sc3n2)cc1
- Concentration (Mus musculus [2]): inactive

SMILES: CCCCN(CCCC)CCCOc1ccc(-c2cn3nccnc3n2)cc1.Cl.Cl
- Inhibition (Canis familiaris): 46%
- Concentration (Mus musculus [2]): inactive

SMILES: CCCCN(CCCC)CCCOc1ccc(-c2cn3cc(C)ccc3n2)cc1
- Concentration (Mus musculus [1]): 0.1%

SMILES: CCCN(CCC)CCCOc1ccc(-c2cn3cccc(C)c3n2)cc1
- Concentration (Mus musculus [1]): 0.1%

SMILES: CCCCN(CCCC)CCCOc1ccc(-c2cn3cccc(O)c3n2)cc1
- Concentration (Mus musculus [1]): 0.1%

SMILES: CCCCN(CCCC)CCCOc1ccc(-c2nc3c(C)cccn3c2C)cc1
- Concentration (Mus musculus [1]): 0.1%

SMILES: CCCCN(CCCC)CCCOc1ccc(C(=O)c2cn3ccc(C)cc3n2)cc1
- Concentration (Mus musculus [1]): 1%

SMILES: COc1ccc([C@@H]2Sc3ccccc3N(CCN(C)C)C(=O)[C@@H]2OC(C)=O)cc1 [DILTIAZEM]
- Inhibition (Canis familiaris): 96%

SMILES: CCCCN(CCCC)CCCOc1ccc(C(=O)c2cnc3ccc(Br)cn23)cc1
- Concentration (Mus musculus [1]): 0.1%

SMILES: Cc1cccn2cc(-c3ccc(OCCCn4ccnc4)cc3)nc12
- Concentration (Mus musculus [1]): > 1%

SMILES: CCCCN(CCCC)CCCOc1ccc(-c2cn3cccc(C)c3n2)c(C)c1
- Concentration (Mus musculus [1]): 0.1%

SMILES: CCCCN(CCCC)CCCOc1ccc(-c2nc3sccn3c2C)cc1
- Concentration (Mus musculus [1]): 0.1%

SMILES: CCCCN(CCCC)CCCOc1ccc(-c2cn3c(C)cccc3n2)cc1
- Concentration (Mus musculus [1]): 0.1%

SMILES: CCCCN(CCCC)CCCOc1ccc(-c2cn3c(n2)sc2ccccc23)cc1.Cl.Cl
- Inhibition (Canis familiaris): 15%
- Concentration (Mus musculus [1]): 1%

SMILES: Cc1cccn2cc(-c3ccc(OCCCN(C)C)cc3)nc12
- Concentration (Mus musculus [1]): 1%

SMILES: CCCCN(CCCC)CCCOc1c(OC)cc(-c2cn3cccc(C)c3n2)cc1OC
- Concentration (Mus musculus [1]): 0.1%

SMILES: Cc1cccn2cc(-c3ccc(OCCCN4CCOCC4)cc3)nc12
- Concentration (Mus musculus [1]): > 1%

SMILES: CCCCN(CCCC)CCCOc1ccc(-c2cn3ccc(C)cc3n2)cc1
- Concentration (Mus musculus [1]): 0.1%

SMILES: CCCCN(CCCC)CCCOc1ccc(-c2cn3ccc(C)nc3n2)cc1
- Concentration (Mus musculus [2]): inactive

SMILES: COC(=O)C1=C(C)NC(C)=C(C(=O)OC)C1c1ccccc1[N+](=O)[O-] [NIFEDIPINE]
- Inhibition (Canis familiaris): 95%
- Concentration (Mus musculus [1]): > 1%

SMILES: CCCCN(CCCC)CCCOc1ccc(-c2cn3cccc(C)c3n2)cc1OC
- Concentration (Mus musculus [1]): 0.01%

SMILES: CCCCN(CCCC)CCCOc1ccc(C(=O)c2cnc3nc(C)ccn23)cc1
- IC50 [3]: 6.1 µM
- Concentration (Mus musculus [2]): inactive

SMILES: CCCCN(CCCC)CCCOc1ccc(C(=O)c2cn3cccc(C)c3n2)cc1
- IC50 [3]: 6 µM
- Concentration (Mus musculus [1]): 1%

SMILES: CCCCN(CCCC)CCCOc1ccc(-c2cn3cccnc3n2)cc1
- inhibition at 68 µM [4]: 43%
- Concentration (Mus musculus [1]): > 1%

SMILES: CCCCN(CCCC)CCCOc1ccc(-c2cn3cccc(C)c3n2)cc1
- Concentration (Mus musculus [1]): 0.01%

SMILES: CCCCN(CCCC)CCCOc1ccc(-c2cn3ccccc3n2)cc1.Cl
- Inhibition (Canis familiaris): 5.4%
- Concentration (Mus musculus [1]): 0.1%

SMILES: CCCCN(CCCC)CCCOc1ccc(-c2cn3ccsc3n2)cc1
- Concentration (Mus musculus [1]): > 1%

SMILES: CCCCN(CCCC)CCCOc1ccc(-c2cn3cccc(C)c3n2)cc1C
- Concentration (Mus musculus [1]): 0.1%

SMILES: CCCCN(CCCC)CCCOc1ccc(C(=O)c2cnc3c(C)cccn23)cc1
- IC50 [3]: 0.5 µM
- Concentration (Mus musculus [1]): 0.1%

SMILES: CCCCN(CCCC)CCCCOc1ccc(-c2cn3cccc(C)c3n2)cc1
- Concentration (Mus musculus [1]): 1%

SMILES: CC(C)COCC(CN(Cc1ccccc1)c1ccccc1)N1CCCC1 (stereo not drawn) [BEPRIDIL]
- IC50 [3]: 22 µM
- Inhibition (Canis familiaris): 81%

SMILES: CCCCN(CCCC)CCCOc1ccc(-c2cn3cccc(OCc4ccccc4)c3n2)cc1
- Concentration (Mus musculus [1]): 0.1%
- inhibition at 10 µM [5]: 45%

SMILES: CCCCN(CCCC)CCCOc1ccc(-c2cn3cccc([N+](=O)[O-])c3n2)cc1
- Concentration (Mus musculus [1]): > 1%

SMILES: CCCCN(CCCC)CCCOc1ccc(-c2cn3cc(Br)ccc3n2)cc1
- Concentration (Mus musculus [1]): 1%

SMILES: Cc1cccn2cc(-c3ccc(OCCCN4CCCCC4)cc3)nc12
- Concentration (Mus musculus [1]): 1%
